According to patent US20250275968A1, “INHIBITORS OF TAU PROTEINS” (DEUTSCHES ZENTRUM FÜR NEURODEGENERATIVE ERKRANKUNGEN E.V., priority 2022, published 2025):
Where a name gives a salt, the structure may show the parent alone.

How the values were obtained:
[1] = test system: 2N4R tau; assay: In vitro seeded aggregation/fibrillization assay of 2N4R tau (ThT fluorescence); type: biochemical; details: tau:compound mole ratios 1:3 and 1:10
Procedure: Aggregation of 2N4R Tau was performed using a previously published co-factor-free aggregation protocol, with a few modifications (Reference: Chakraborty, P. et al. Co-factor-free aggregation of tau into seeding-competent RNA-sequestering amyloid fibrils. Nat. Commun. 12, 4231 (2021)). Aggregation experiments used the Tau protein stock prepared in 25 mM HEPES pH 7.4, 1 mM TCEP. Stocks of compounds were prepared in aggregation buffer (25 mM HEPES, 10 mM KCl, 5 mM MgCl2, pH 7.2) or in DMSO (10 mM compound).
To prepare the Tau fibril seeds by de novo aggregation, 2N4R Tau at a monomer concentration of 25 μM was diluted in aggregation buffer. The working concentration of TCEP in the aggregation mixture was <25 μM after dilution of the stock. To this mixture, Thioflavin T (ThT) was added to a final concentration of 50 μM. A total volume of 100 μL of the Tau-ThT mixture was incubated in a well of a 96-well microplate (Greiner Bio-one), in the presence of two polytetrafluoroethylene beads. The microplate was subjected to a program implemented in a Tecan Spark plate reader that involved incubating at 37° C., with intervals of double orbital shaking and ThT fluorescence emission measurement. The excitation wavelength for ThT was set as 430 nm and the emission wavelength was 485 nm. Details of this plate reader program were published previously (Reference: Chakraborty, P. et al. Co-factor-free aggregation of tau into seeding-competent RNA-sequestering amyloid fibrils. Nat. Commun. 12, 4231 (2021)). […] The fibril-containing mixture collected from the microplate served as a seeding mixture for the subsequent aggregation assays.
Seeded aggregation assays were performed as described above but with 1.0% of the well volume occupied by the seeding mixture sonicated for 1 minute. The assays were performed in the presence and absence of compounds, and working concentrations ranged from 0-250 μM compound.
Analyses of the fluorescence curves were performed using Graphpad PRISM version 8. Fluorescence data were fit to a sigmoid function. The number of hours corresponding to half-maximal ThT Fluorescence™ as well as the span of fluorescence intensity (Span) were determined for each sigmoid curve. Statistically significant differences were determined by one-way ANOVA analysis with Dunnett's multiple comparison test or unpaired t-test.

[2] = test system: 3R tau (tau^3R); assay: In vitro seeded aggregation assay of 3R tau (ThT fluorescence); type: biochemical; details: mole ratios 1:3 and 1:10
Procedure: (§1) Seeded aggregation assays were performed as described above but with 1.0% of the well volume occupied by the seeding mixture sonicated for 1 minute. The assays were performed in the presence and absence of compounds, and working concentrations ranged from 0-250 μM compound. Analyses of the fluorescence curves were performed using Graphpad PRISM version 8. Fluorescence data were fit to a sigmoid function. The number of hours corresponding to half-maximal ThT FluorescenceTM as well as the span of fluorescence intensity (Span) were determined for each sigmoid curve. Statistically significant differences were determined by one-way ANOVA analysis with Dunnett's multiple comparison test or unpaired t-test. The described seeded aggregation protocol was likewise applied to 3R Tau and the […]/[…] mutant of 2N4R Tau.

[3] = target: 2N4R tau^C291S,C322S (Homo sapiens, UniProt P10636, C608S/C639S); assay: In vitro seeded aggregation assay of cysteine-free tau mutant (ThT fluorescence); type: biochemical; details: mole ratios 1:3 and 1:10
2N4R tau^C291S,C322S, sequence (P10636 1-441 isoform P10636-8 C291S/C322S): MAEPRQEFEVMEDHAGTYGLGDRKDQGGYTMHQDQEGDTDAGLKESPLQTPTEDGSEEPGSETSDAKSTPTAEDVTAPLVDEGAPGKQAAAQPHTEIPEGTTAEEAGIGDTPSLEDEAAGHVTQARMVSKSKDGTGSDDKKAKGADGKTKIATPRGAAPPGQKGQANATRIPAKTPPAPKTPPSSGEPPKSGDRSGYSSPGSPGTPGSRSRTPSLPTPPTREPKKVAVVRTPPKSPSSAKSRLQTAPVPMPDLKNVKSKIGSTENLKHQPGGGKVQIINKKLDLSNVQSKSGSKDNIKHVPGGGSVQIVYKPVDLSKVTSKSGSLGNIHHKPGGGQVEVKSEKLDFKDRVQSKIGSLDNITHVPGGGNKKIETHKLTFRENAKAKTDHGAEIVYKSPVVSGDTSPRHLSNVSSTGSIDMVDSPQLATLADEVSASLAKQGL
Procedure: as §1

[4] = Solubility in water; type: physicochemical; details: without cosolvents or counterions

normalized Span of ThT fluorescence [3] | normalized Tm (midpoint of aggregation curve) [3] | solubility in water [4] | SMILES | inhibition of aggregation of tau^wt and tau^3R compared with cysteine-free tau^C291S,C322S [1] | normalized Span of ThT fluorescence [2] | normalized Tm (midpoint of aggregation curve) [2]
not observed | do not show a clear dose-dependence |  | C=CC(=O)Nc1cc(Nc2nccc(-c3cn(C)c4ccccc34)n2)c(OC)cc1N(C)CCN(C)C [Osimertinib mesylate, N-[2-(2-Dimethylaminoethylmethylamino)-4-methoxy-5-[[4-(1-methylindol-3-yl)pyrimidin-2-yl]amino]phenyl]prop-2-enamide Mesylate Salt] | more effectively inhibits | statistically lower normalized Span values | do not show a clear dose-dependence
 |  | poor solubility in water | C=CC(=O)Nc1cc(Nc2nccc(-c3cn(C)c4ccccc34)n2)c(OC)cc1N(C)CCN(C)C [Osimertinib, N-[2-(2-Dimethylaminoethylmethylamino)-4-methoxy-5-[[4-(1-methylindol-3-yl)pyrimidin-2-yl]amino]phenyl]prop-2-enamide] |  |  | 
